{"source": "paper PMC11356900", "about": "“Synthesis, Structural Properties and Biological Activities of Novel Hydrazones of 2-, 3-, 4-Iodobenzoic Acid” (Molecules, 2024)", "key": {"Candida spp.": {"tested_on": "Candida spp.", "assay": "Broth microdilution, summary over reference yeasts", "type": "cell-based", "conditions": "for MFC / MIC / MFC/MIC: range over the reference Candida spp. strains; for antifungal activity in words: reference yeasts from Candida spp.", "text": "Procedures of in vitro antimicrobial assays are described in Supplementary Materials.\n2. Microbiology – in vitro antimicrobial activity assays […]\nusing the broth microdilution method according to the European Committee on Antimicrobial Susceptibility Testing (EUCAST) and Clinical and Laboratory Standards Institute guidelines against a panel of reference and clinical or saprophytic strains of mi croorganisms, including the Gram-positive bacteria: Staphylococcus aureus ATCC 43300 (Methi-cillin Resistant S. aureus – MRSA), Staphylococcus aureus ATCC 29213 (Methicillin Susceptible S. aureus – MSSA), Staph-ylococcus epidermidis ATCC 12228, Micrococcus luteus ATCC 10240, Bacillus subtilis ATCC 6633 and Bacillus cereus ATCC 10876), Gram-negative bacteria: Bordetella bronchiseptica ATCC 4617, Escherichia coli ATCC 25922, Klebsiella pneumoniae ATCC 13883, Proteus mirabilis ATCC 12453, Salmonella typhimurium ATCC 14028 and Pseudomonas aeruginosa ATCC 9027, and fungi belonging to yeasts: Candida albicans ATCC 10231, Candida albicans ATCC 2091, Candida parapsilosis ATCC 22019, Candida glabrata ATCC 90030 and Candida krusei ATCC 14243. The microorganisms belonging to ATCC originated from American Type Culture Collection, routinely used for the evaluation of antimicrobials. All the used microbial cultures were first subcultured on nutrient agar or Sabouraud agar at 35°C for 18-24 h or 30°C for 24-48 h for bacteria […]\nThe surface of Mueller-Hinton agar (for bacteria) and RPMI 1640 with MOPS (for fungi) were inoculated with the suspensions of bacterial or fungal species. Microbial suspensions were prepared in sterile saline with an optical density of McFarland standard scale 0.5. The samples containing the compounds were dissolved in dimethyl sulfoxide (DMSO).\nFurthermore, the bacterial and fungal suspensions put onto the Petri dishes with solid media containing 2 mg/mL of the tested compounds followed were incubated at 37°C for 24h and 30°C for 48h for bacteria and fungi, respectively.\nThe inhibition of microbial growth was estimated comparing with a control culture prepared without any tested sam- […]\nantifungal compounds, respectively.\nSubsequently, MIC (Minimal Inhibitory Concentration) of the compounds was examined by the microdilution broth method, using their two-fold dilutions in Mueller-Hinton broth (for bacteria) and RPMI 1640 broth with MOPS (for fungi) prepared in the 96-well polystyrene plates. The final concentrations of the compounds ranged from 1000 to 0.488 µg/mL. Microbial suspensions were prepared in 0.85% NaCl with an optical density of 0.5 McFarland standard. Next each bacterial or fungal suspension was added per each well containing broth and various concentrations of the exam-ined compounds. After incubation, the MIC was assessed spectrophotometrically as the lowest concentration of the […]\nAppropriate DMSO, growth and sterile controls were carried out. The medium with no tested substances was used as a control The MBC (Minimal Bactericidal Concentration) and MFC (Minimal Fungicidal Concentration) are defined as the lowest concentration of the compounds that is required to kill a particular bacterial or fungal species. The MBC/MFC was determined by removing the culture used for the MIC determination from each well and spotted onto the appro-priate agar medium. The plates were incubated under appropriate conditions for bacteria and fungi. The lowest com-pounds concentration with no visible growth observed was assessed as a bactericidal/fungicidal concentration. All the experiments were repeated three times and the representative data are presented.\n1. European Committee for Antimicrobial Susceptibility Testing (EUCAST) Determination of minimum inhibitory con-centrations (MICs) of antibacterial agents by broth dilution. EUCAST discussion document E. Dis 5.1. Clin. Microbiol.\n2. Clinical and Laboratory Standards Institute. Reference method for broth dilution antifungal susceptibility testing of […]"}, "Gram-positive bacteria": {"tested_on": "Gram-positive bacteria", "assay": "Broth microdilution, summary over reference Gram-positive bacteria", "type": "cell-based", "conditions": "for antibacterial activity in words: reference Gram-positive bacteria / studied bacteria", "how_it_was_run": "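Two-fold dilutions in RPMI 1640 with MOPS (fungi) or Mueller-Hinton broth (bacteria), final 1000–0.488 µg/mL, inoculum 0.5 McFarland in 0.85% NaCl. MIC read spectrophotometrically; MBC/MFC as lowest concentration with no visible growth after well contents were spotted onto agar.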"}, "[1]": {"tested_on": "Staphylococcus epidermidis ATCC 12228", "assay": "Broth microdilution MIC/MBC", "conditions": "ATCC12228"}, "[2]": {"tested_on": "Staphylococcus aureus ATCC 29213", "assay": "Broth microdilution MIC/MBC", "conditions": "ATCC29213"}, "[3]": {"tested_on": "Micrococcus luteus ATCC 10240", "assay": "Broth microdilution MIC/MBC", "conditions": "Micrococcus luteus, ATCC10240"}, "[4]": {"conditions": "range over the reference Gram-positive bacteria"}, "[5]": {"conditions": "range over the reference Gram-positive bacteria, read-out: MBC"}, "[6]": {"conditions": "range over the reference Gram-positive bacteria, read-out: MIC"}}, "note": "Like-named read-outs stand apart in the source and are kept apart here.", "data": [{"smiles": "O=C(N/N=C/c1cc(I)cc(I)c1O)c1ccccc1I", "note": "[Compound 14, N-[(3,5-diiodo-2-hydroxyphenyl)methylidene]-2-iodobenzohydrazide]", "values": [{"measurement": "MFC", "setting": "Candida spp.", "result": "≥ 1000", "unit": "µg/mL"}, {"measurement": "MIC", "setting": "Candida spp.", "result": "250 to 1000", "unit": "µg/mL"}, {"measurement": "antifungal activity in words", "setting": "Candida spp.", "result": "moderate or mild"}, {"measurement": "MBC/MIC", "setting": "Gram-positive bacteria; [4]", "result": "1–4"}, {"measurement": "MBC", "setting": "Gram-positive bacteria; [5]", "result": "125 to 1000", "unit": "µg/mL"}, {"measurement": "MIC", "setting": "Gram-positive bacteria; [6]", "result": "62.5 to 500", "unit": "µg/mL"}, {"measurement": "antibacterial activity in words", "setting": "Gram-positive bacteria", "result": "good or moderate"}, {"measurement": "MBC", "setting": "[1]", "result": 250, "unit": "µg/mL"}, {"measurement": "MIC", "setting": "[1]", "result": 125, "unit": "µg/mL"}, {"measurement": "MBC", "setting": "[2]", "result": 500, "unit": "µg/mL"}, {"measurement": "MIC", "setting": "[2]", "result": 125, "unit": "µg/mL"}, {"measurement": "MBC", "setting": "[3]", "result": 125, "unit": "µg/mL"}, {"measurement": "MIC", "setting": "[3]", "result": 62.5, "unit": "µg/mL"}]}, {"smiles": "O=C(N/N=C/c1cc(Cl)cc(I)c1O)c1cccc(I)c1", "note": "[Compound 20, N-[(5-chloro-2-hydroxy-3-iodophenyl)methylidene]-3-iodobenzohydrazide]", "values": [{"measurement": "MFC/MIC", "setting": "Candida spp.", "result": "> 4"}, {"measurement": "MIC", "setting": "Candida spp.", "result": "125 to 500", "unit": "µg/mL"}, {"measurement": "antifungal activity in words", "setting": "Candida spp.", "result": "good and moderate"}, {"measurement": "MBC", "setting": "Gram-positive bacteria", "result": "3.91 to 62.5", "unit": "µg/mL"}, {"measurement": "MIC", "setting": "Gram-positive bacteria", "result": "1.95 to 7.81", "unit": "µg/mL"}, {"measurement": "MBC/MIC", "setting": "Gram-positive bacteria; [4]", "result": "1–4"}, {"measurement": "antibacterial activity in words", "setting": "Gram-positive bacteria", "result": "very strong (very strong bioactivity as a MIC < 10 µg/mL)"}, {"measurement": "MBC", "setting": "[1]", "result": 7.81, "unit": "µg/mL"}, {"measurement": "MIC", "setting": "[1]", "result": 1.95, "unit": "µg/mL"}, {"measurement": "MBC", "setting": "[2]", "result": 3.91, "unit": "µg/mL"}, {"measurement": "MIC", "setting": "[2]", "result": 3.91, "unit": "µg/mL"}, {"measurement": "MBC", "setting": "[3]", "result": 7.81, "unit": "µg/mL"}, {"measurement": "MIC", "setting": "[3]", "result": 1.95, "unit": "µg/mL"}]}, {"smiles": "O=C(N/N=C/c1cc(Br)cc(Br)c1O)c1cccc(I)c1", "note": "[Compound 21, N-[(3,5-dibromo-2-hydroxyphenyl)methylidene]-3-iodobenzohydrazide]", "values": [{"measurement": "MFC/MIC", "setting": "Candida spp.", "result": "> 4"}, {"measurement": "MIC", "setting": "Candida spp.", "result": "125 to 500", "unit": "µg/mL"}, {"measurement": "antifungal activity in words", "setting": "Candida spp.", "result": "good and moderate"}, {"measurement": "MBC", "setting": "Gram-positive bacteria", "result": "3.91 to 62.5", "unit": "µg/mL"}, {"measurement": "MIC", "setting": "Gram-positive bacteria", "result": "3.91 to 15.6", "unit": "µg/mL"}, {"measurement": "MBC/MIC", "setting": "Gram-positive bacteria; [4]", "result": "1–4"}, {"measurement": "antibacterial activity in words", "setting": "Gram-positive bacteria", "result": "strong or very strong"}, {"measurement": "MBC", "setting": "[1]", "result": 31.2, "unit": "µg/mL"}, {"measurement": "MIC", "setting": "[1]", "result": 7.81, "unit": "µg/mL"}, {"measurement": "MBC", "setting": "[2]", "result": 15.6, "unit": "µg/mL"}, {"measurement": "MIC", "setting": "[2]", "result": 15.6, "unit": "µg/mL"}, {"measurement": "MBC", "setting": "[3]", "result": 15.6, "unit": "µg/mL"}, {"measurement": "MIC", "setting": "[3]", "result": 3.91, "unit": "µg/mL"}]}, {"smiles": "O=C(N/N=C/c1cc(Cl)cc(I)c1O)c1ccc(I)cc1", "note": "[Compound 27, N-[(5-chloro-2-hydroxy-3-iodophenyl)methylidene]-4-iodobenzohydrazide]", "values": [{"measurement": "MFC", "setting": "Candida spp.", "result": 62.5, "unit": "µg/mL"}, {"measurement": "MFC/MIC", "setting": "Candida spp.", "result": "1–2"}, {"measurement": "MIC", "setting": "Candida spp.", "result": "31.2 to 62.5", "unit": "µg/mL"}, {"measurement": "antifungal activity in words", "setting": "Candida spp.", "result": "good (good bioactivity as a MIC in the range 26 – 125 µg/mL)"}, {"measurement": "MBC/MIC", "setting": "Gram-positive bacteria; [4]", "result": "1–4"}, {"measurement": "MBC", "setting": "Gram-positive bacteria; [5]", "result": "31.2 to 500", "unit": "µg/mL"}, {"measurement": "MIC", "setting": "Gram-positive bacteria; [6]", "result": "31.2 to 125", "unit": "µg/mL"}, {"measurement": "antibacterial activity in words", "setting": "Gram-positive bacteria", "result": "good (good bioactivity as a MIC in the range 26 – 125 µg/mL)"}, {"measurement": "MBC", "setting": "[1]", "result": 31.2, "unit": "µg/mL"}, {"measurement": "MIC", "setting": "[1]", "result": 31.2, "unit": "µg/mL"}, {"measurement": "MBC", "setting": "[2]", "result": 125, "unit": "µg/mL"}, {"measurement": "MIC", "setting": "[2]", "result": 62.5, "unit": "µg/mL"}, {"measurement": "MBC", "setting": "[3]", "result": 250, "unit": "µg/mL"}, {"measurement": "MIC", "setting": "[3]", "result": 125, "unit": "µg/mL"}]}]}
